Activity calls are given as the source filed them. The rule behind the calls is not given here.
Tested on: CCRIS mutagenicity, Ames/micronucleus/aberration tests
Assay: CCRIS mutagenicity studies

Measured: mutagenic call

Cc1ccccc1Cl
inactive: Test System: AMES SALMONELLA TYPHIMURIUM, Strain/Indicator: TA98, Metabolic Activation: HAMSTER, LIVER, S-9, AROCLOR 1254, Method: STANDARD PLATE inactive; negative | Test System: AMES SALMONELLA TYPHIMURIUM, Strain/Indicator: TA98, Metabolic Activation: NONE, Method: PREINCUBATION inactive; negative | Test System: AMES SALMONELLA TYPHIMURIUM, Strain/Indicator: TA98, Metabolic Activation: NONE, Method: STANDARD PLATE inactive; negative | Test System: AMES SALMONELLA TYPHIMURIUM, Strain/Indicator: TA98, Metabolic Activation: RAT LIVER S-9, PHENOBARBITAL AND BETA-NAPHTHOFLAVONE, Method: PREINCUBATION inactive; negative | Test System: AMES SALMONELLA TYPHIMURIUM, Strain/Indicator: TA98, Metabolic Activation: RAT, LIVER, S-9, AROCLOR 1254, Method: STANDARD PLATE inactive; negative | Test System: AMES SALMONELLA TYPHIMURIUM, Strain/Indicator: TA100, Metabolic Activation: HAMSTER, LIVER, S-9, AROCLOR 1254, Method: STANDARD PLATE inactive; negative | Test System: AMES SALMONELLA TYPHIMURIUM, Strain/Indicator: TA100, Metabolic Activation: NONE, Method: PREINCUBATION inactive; negative | Test System: AMES SALMONELLA TYPHIMURIUM, Strain/Indicator: TA100, Metabolic Activation: NONE, Method: STANDARD PLATE inactive; negative | Test System: AMES SALMONELLA TYPHIMURIUM, Strain/Indicator: TA100, Metabolic Activation: RAT LIVER S-9, PHENOBARBITAL AND BETA-NAPHTHOFLAVONE, Method: PREINCUBATION inactive; negative | Test System: AMES SALMONELLA TYPHIMURIUM, Strain/Indicator: TA100, Metabolic Activation: RAT, LIVER, S-9, AROCLOR 1254, Method: STANDARD PLATE inactive; negative | Test System: AMES SALMONELLA TYPHIMURIUM, Strain/Indicator: TA102, Metabolic Activation: NONE, Method: PREINCUBATION inactive; negative | Test System: AMES SALMONELLA TYPHIMURIUM, Strain/Indicator: TA102, Metabolic Activation: RAT LIVER S-9, PHENOBARBITAL AND BETA-NAPHTHOFLAVONE, Method: PREINCUBATION inactive; negative | Test System: AMES SALMONELLA TYPHIMURIUM, Strain/Indicator: TA104, Metabolic Activation: NONE, Method: PREINCUBATION inactive; negative | Test System: AMES SALMONELLA TYPHIMURIUM, Strain/Indicator: TA104, Metabolic Activation: RAT LIVER S-9, PHENOBARBITAL AND BETA-NAPHTHOFLAVONE, Method: PREINCUBATION inactive; negative | Test System: AMES SALMONELLA TYPHIMURIUM, Strain/Indicator: TA1535, Metabolic Activation: HAMSTER, LIVER, S-9, AROCLOR 1254, Method: STANDARD PLATE inactive; negative | Test System: AMES SALMONELLA TYPHIMURIUM, Strain/Indicator: TA1535, Metabolic Activation: NONE, Method: PREINCUBATION inactive; negative | Test System: AMES SALMONELLA TYPHIMURIUM, Strain/Indicator: TA1535, Metabolic Activation: NONE, Method: STANDARD PLATE inactive; negative | Test System: AMES SALMONELLA TYPHIMURIUM, Strain/Indicator: TA1535, Metabolic Activation: RAT LIVER S-9, PHENOBARBITAL AND BETA-NAPHTHOFLAVONE, Method: PREINCUBATION inactive; negative | Test System: AMES SALMONELLA TYPHIMURIUM, Strain/Indicator: TA1535, Metabolic Activation: RAT, LIVER, S-9, AROCLOR 1254, Method: STANDARD PLATE inactive; negative | Test System: AMES SALMONELLA TYPHIMURIUM, Strain/Indicator: TA1537, Metabolic Activation: HAMSTER, LIVER, S-9, AROCLOR 1254, Method: STANDARD PLATE inactive; negative | Test System: AMES SALMONELLA TYPHIMURIUM, Strain/Indicator: TA1537, Metabolic Activation: NONE, Method: PREINCUBATION inactive; negative | Test System: AMES SALMONELLA TYPHIMURIUM, Strain/Indicator: TA1537, Metabolic Activation: NONE, Method: STANDARD PLATE inactive; negative | Test System: AMES SALMONELLA TYPHIMURIUM, Strain/Indicator: TA1537, Metabolic Activation: RAT LIVER S-9, PHENOBARBITAL AND BETA-NAPHTHOFLAVONE, Method: PREINCUBATION inactive; negative | Test System: AMES SALMONELLA TYPHIMURIUM, Strain/Indicator: TA1537, Metabolic Activation: RAT, LIVER, S-9, AROCLOR 1254, Method: STANDARD PLATE inactive; negative | Test System: AMES SALMONELLA TYPHIMURIUM, Strain/Indicator: TA1538, Metabolic Activation: HAMSTER, LIVER, S-9, AROCLOR 1254, Method: STANDARD PLATE inactive; negative | Test System: AMES SALMONELLA TYPHIMURIUM, Strain/Indicator: TA1538, Metabolic Activation: NONE, Method: PREINCUBATION inactive; negative | Test System: AMES SALMONELLA TYPHIMURIUM, Strain/Indicator: TA1538, Metabolic Activation: NONE, Method: STANDARD PLATE inactive; negative | Test System: AMES SALMONELLA TYPHIMURIUM, Strain/Indicator: TA1538, Metabolic Activation: RAT LIVER S-9, PHENOBARBITAL AND BETA-NAPHTHOFLAVONE, Method: PREINCUBATION inactive; negative | Test System: AMES SALMONELLA TYPHIMURIUM, Strain/Indicator: TA1538, Metabolic Activation: RAT, LIVER, S-9, AROCLOR 1254, Method: STANDARD PLATE inactive; negative | Test System: E. COLI, Strain/Indicator: WP2UVRA/PKM101, Metabolic Activation: RAT LIVER S-9, PHENOBARBITAL AND BETA-NAPHTHOFLAVONE, Method: PREINCUBATION inactive; negative | Test System: E. COLI, Strain/Indicator: WP2UVRA, Metabolic Activation: NONE, Method: PREINCUBATION inactive; negative | Test System: E. COLI, Strain/Indicator: WP2UVRA, Metabolic Activation: RAT LIVER S-9, PHENOBARBITAL AND BETA-NAPHTHOFLAVONE, Method: PREINCUBATION inactive; negative | Test System: E.COLI, Strain/Indicator: WP2UVRA/PKM101, Metabolic Activation: NONE, Method: PREINCUBATION inactive; negative | Test System: Mouse lymphoma, Strain/Indicator: L5178Y (tk+/tk-), Metabolic Activation: None, Method: Suspension/plate inactive; negative | Test System: Mouse lymphoma, Strain/Indicator: L5178Y (tk+/tk-), Metabolic Activation: Rat, Liver, S-9, Aroclor 1254, Method: Suspension/plate inactive; negative

From PubChem BioAssay AID1259407 (Chemical Carcinogenesis Research Information System (CCRIS), 2018)
